Reference: paper PMC2193274 (The Journal of Experimental Medicine, 2000)
Blank lines part the entries; values can stand above or below the sequence they belong to.

Columns and labels:
[1] = biological target: Qa-1^b (Mus musculus, UniProt P06339); format: binding; conditions: competition with biotin-Qdm4C
[2] = system: T2 cells expressing Qa-1^b (T237); format: cell-based, human; conditions: for Inhibition of killing of T237 targets by Qa-1^b-Qdm tetramer-positive NK cells: 30 μM peptide overnight and during the 4-h assay, Fig. 6
[3] = system: Dk; conditions: cited from earlier work

Binding affinity for Qa-1 in competition assays compared with Qdm [1]: affinity similar or identical to Qdm
Sequence: AMACRTLLL [Qdm4C]

Sequence: AMAPRTLLL [Qdm]
Inhibition of lysis of T237 targets by tetramer-negative NK cells [2]: does not inhibit lysis
Inhibition of killing of T237 targets by Qa-1^b-Qdm tetramer-positive NK cells [2]: markedly inhibit killing

Sequence: KMAPRTLLL [Qdm P1]
Inhibition of killing of T237 targets by Qa-1^b-Qdm tetramer-positive NK cells [2]: Substantial inhibition

Sequence: RRLGRTLLL [MT(389–397)]
Binding to Dk [3]: high affinity
